Results taken from US20230132823A1, “BI-FUNCTIONAL COMPOUNDS AND METHODS FOR TARGETED UBIQUITINATION OF ANDROGEN RECEPTOR” (MONTELINO THERAPEUTICS, INC., priority 2020, published 2023).

Key:
[1] = test system: 22Rv1 cells; assay: Apoptosis assay (annexin-V, TUNEL) in 22Rv1; type: cell-based, human; conditions: 22Rv1, 1 μM
Procedure: Apoptosis Assay. An apoptosis assay is carried out using the Thermo Fisher ApoDETECT Annexin V-FITC kit following the protocol recommended by the vendor. […] Then, fixed cells are incubated with Annexin V-FITC in PBS solution for 30 minutes at room temperature. After washing three times with PBS, cells are treated with 300 nM DAPI in PBS for 5 minutes at room temperature. Finally, after washing three times with PBS, mounting solution is added and the cells are visualized using immunofluorescence microscopy. Next, a TUNEL assay is performed using Promega DeadEnd Fluorometric TUNEL system. After treatment with Test Compound and fixation as described above in the Annexin-V experiment, 100 μl of equilibration buffer is incubated for 10 min. Then, 50 μl of TdT reaction mix is added and incubated for 60 min at 37° C. in a humidified chamber. Finally, stop solution is added and samples are mounted on slides using mounting medium. To assess non-specific cytotoxicity, an LDH assay kit is used.

[2] = test system: LNCaP; assay: LNCaP cell proliferation; type: cell-based, human; conditions: androgen-responsive cell line; 1 μM
Procedure: The human prostate cancer cell line, 22Rv1 has been reported to express a high level of AR-V7. Thus, 22Rv1 was seeded at 50,000 cells/well on a 24-well plate in quadruplicates and treated with test compound in concentrations ranging up to 20 μM for four days. Standard culture media was RPMI-1640 supplemented with 10% fetal bovine serum. The test compound initially was dissolved in DMSO at 50 mM. This stock solution was then diluted as needed for the indicated concentrations. At the end of the four-day period, cells were harvested using 1% trypsin and counted using an automated cell counter.
Cell Culture. Human CaP cell lines, LNCaP, 22Rv1, VCaP, PC3, and DU145 are obtained from the American Type Culture Collection (ATCC) and maintained in the standard culture media: RPMI-1640 supplemented with 10% fetal bovine serum (FBS). LNCaP, 22Rv1, and VCaP are androgen-responsive cell lines, while PC3 and DU145 are not. To establish SAT resistant CaP cell lines, LNCaP, 22Rv1, and VCaP are treated continuously with 10-50 μM abiraterone, apalutamide, darolutamide, or enzalutamide. […] Mycoplasma contamination is also assessed using a PCR based detection system.

[3] = test system: progesterone receptor (PR) a and b; assay: Immunoblot of PR in 22Rv1 cells; type: cell-based, human; conditions: 22Rv1, 24 hours, up to 10 μM
Procedure: Cell Culture. Human CaP cell lines, LNCaP, 22Rv1, VCaP, PC3, and DU145 are obtained from the American Type Culture Collection (ATCC) and maintained in the standard culture media: RPMI-1640 supplemented with 10% fetal bovine serum (FBS). LNCaP, 22Rv1, and VCaP are androgen-responsive cell lines, while PC3 and DU145 are not. To establish SAT resistant CaP cell lines, LNCaP, 22Rv1, and VCaP are treated continuously with 10-50 μM abiraterone, apalutamide, darolutamide, or enzalutamide. After 3-6 months, stable cell lines are established and designated as LNCaP-Abi^R, LNCaP-Apa^R, LNCaP-Daro^R, LNCaP-Enz^R, VCaP-Abi^R, VCaP-Apa^R, VCaP-Daro^R, VCaP-Enz^R, 22Rv1-Abi^R, 22Rv1-Apa^R, 22Rv1-Daro^R and 22Rv1-Enz^R. Unless otherwise specified, the standard culture media for these SAT-resistant cell lines included 10 μM of their respective SAT. For the proteasome inhibitor study, the inhibitors MG132 and Epoxomicin are used. The E3 ligase inhibitors Heclin, Nutlin 3a, Thalidomide, and VH298 are used. […] Mycoplasma contamination is also assessed using a PCR based detection system.
Immunoblot Analysis. […] Cell lysates are then centrifuged and protein in the supernatant is quantified. […] Following the incubation with appropriate secondary antibody, immunoblots are analyzed using SuperSignal West Femto Maximum Sensitivity Substrate (ThermoFisher).

[4] = biological target: T1, AR-V7 (Homo sapiens, UniProt P10275); assay: Immunoblot of AR-V7 in harvested xenograft tumors; type: in vivo; set-up: endogenous in cells; host or cells: 22Rv1 (also VCaP, LNCaP and SAT-resistant sublines)
T1 sequence (P10275 1-644 isoform P10275-3): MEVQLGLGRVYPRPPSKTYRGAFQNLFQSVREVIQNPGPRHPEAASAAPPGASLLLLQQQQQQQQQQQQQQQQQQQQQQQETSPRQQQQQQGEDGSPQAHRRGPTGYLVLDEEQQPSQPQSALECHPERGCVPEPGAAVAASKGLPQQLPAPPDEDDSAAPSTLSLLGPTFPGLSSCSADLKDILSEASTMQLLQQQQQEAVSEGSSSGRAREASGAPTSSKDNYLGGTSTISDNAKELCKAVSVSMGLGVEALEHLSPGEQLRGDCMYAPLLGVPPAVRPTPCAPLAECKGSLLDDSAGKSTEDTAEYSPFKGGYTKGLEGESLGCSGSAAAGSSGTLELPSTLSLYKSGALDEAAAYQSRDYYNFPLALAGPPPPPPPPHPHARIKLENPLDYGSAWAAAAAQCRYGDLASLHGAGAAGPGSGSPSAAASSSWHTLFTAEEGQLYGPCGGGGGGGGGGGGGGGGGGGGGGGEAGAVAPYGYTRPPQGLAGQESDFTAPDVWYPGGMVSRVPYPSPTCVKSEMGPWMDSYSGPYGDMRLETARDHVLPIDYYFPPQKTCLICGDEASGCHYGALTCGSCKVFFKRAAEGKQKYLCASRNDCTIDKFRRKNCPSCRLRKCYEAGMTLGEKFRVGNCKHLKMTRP
Procedure: Immunoblot Analysis. CaP cells are collected and lysed with the lysis buffer (20 mM Tris-HCl (pH 7.5), 150 mM NaCl, 1 mM Na2EDTA, 1 mM EGTA, 1% Triton, 2.5 mM sodium pyrophosphate, 1 mM beta-glycerophosphate, 1 mM Na3VO4, and 1 μg/ml leupeptin) containing 1 mM phenylmethylsulfonyl fluoride (PMSF). Cell lysates are then centrifuged and protein in the supernatant is quantified. After separating 25-50 μg of protein using SDS-PAGE, samples are incubated with AR-V7, GR, PR, ERα, AR-FL, ubiquitin, or β-actin antibodies. For AR-V7, AR-FL, PR, GR, and ERα immunoblots, primary antibody is diluted 1:1000 in 5% skim milk. For the β-actin immunoblot, 1:10000 diluted primary antibody is used. […] Following the incubation with appropriate secondary antibody, immunoblots are analyzed using SuperSignal West Femto Maximum Sensitivity Substrate (ThermoFisher).
Mice are then treated daily with Test Compound with or without enzalutamide via the indicated route (intratumoral, intraperitoneal, or oral) for five to six weeks. At the end of the study, all animals are sacrificed and tumors are harvested and analyzed. Statistical significance is calculated using the Student's t-test for paired comparisons of experimental groups and, where appropriate, by Wilcoxon rank sum test, and by 2-way ANOVA. […]
The in vivo effects of the Compound of Example 16 are assessed in mice using enzalutamide-resistant CaP xenografts. […]

Cc1ncsc1-c1ccc([C@H](C)NC(=O)[C@@H]2C[C@@H](O)CN2C(=O)[C@@H](NC(=O)CCCCNC(=O)COc2c(-c3csc(N4CCOCC4)n3)ccc(F)c2F)C(C)(C)C)cc1 [Example 16, (2S,4R)-1-((S)-2-(5-(2-(2,3-difluoro-6-(2-morpholinothiazol-4-yl)phenoxy)acetamido)pentanamido)-3,3-dimethylbutanoyl)-4-hydroxy-N-((S)-1-(4-(4-methylthiazol-5-yl)phenyl)ethyl)pyrrolidine-2-carboxamide]
apoptosis, TUNEL assay [1]: confirmed | apoptosis, annexin-V assay ([1]; 0 to 48 hours, starts approximately three hours after treatment, increases through 48 hours): increase in annexin-V staining | effect on proliferation of LNCaP [2]: inhibits the proliferation | effect on expression level of progesterone receptor (PR) a and b [3]: no visible effect | AR-V7 protein expression in Enz^R CaP tumors ([4]; IP administration): decreased | AR-V7 protein level in treated tumors ([4]; intratumoral, 22Rv1-Enz^R xenograft, end of study): significant decrease
